{
  "source": "paper PMC9516332",
  "about": "(Frontiers in Oncology, 2022)",
  "assay_in_all_cases": "Kinase panel profiling at 1 µmol/L (MSA or IMAP), percentage inhibition",
  "type_in_all_cases": "biochemical",
  "key": {"[1]": {"target": "T1, panel of 255 wild-type kinases (Homo sapiens, UniProt Q9NWZ3)", "T1 sequence (Q9NWZ3 1-460)": "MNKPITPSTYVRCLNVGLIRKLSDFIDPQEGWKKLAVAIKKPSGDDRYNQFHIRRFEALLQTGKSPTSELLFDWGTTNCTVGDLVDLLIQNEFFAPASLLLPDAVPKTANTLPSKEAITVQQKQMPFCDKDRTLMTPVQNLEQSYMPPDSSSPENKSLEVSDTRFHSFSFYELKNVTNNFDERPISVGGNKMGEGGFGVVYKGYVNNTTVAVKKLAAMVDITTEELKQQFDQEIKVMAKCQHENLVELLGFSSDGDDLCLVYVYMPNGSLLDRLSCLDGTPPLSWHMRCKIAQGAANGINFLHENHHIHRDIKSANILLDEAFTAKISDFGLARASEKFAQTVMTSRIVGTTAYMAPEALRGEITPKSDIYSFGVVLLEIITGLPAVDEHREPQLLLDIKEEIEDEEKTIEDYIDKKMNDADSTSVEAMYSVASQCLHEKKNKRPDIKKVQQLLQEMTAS", "settings": "kinase IRAK4; 1 µmol/L single concentration; read-out: %-inhibition at 1 µmol/L, IRAK4"}, "[2]": {"target": "T2, panel of 255 wild-type kinases (Homo sapiens, UniProt Q16832)", "T2 sequence (Q16832 22-855)": "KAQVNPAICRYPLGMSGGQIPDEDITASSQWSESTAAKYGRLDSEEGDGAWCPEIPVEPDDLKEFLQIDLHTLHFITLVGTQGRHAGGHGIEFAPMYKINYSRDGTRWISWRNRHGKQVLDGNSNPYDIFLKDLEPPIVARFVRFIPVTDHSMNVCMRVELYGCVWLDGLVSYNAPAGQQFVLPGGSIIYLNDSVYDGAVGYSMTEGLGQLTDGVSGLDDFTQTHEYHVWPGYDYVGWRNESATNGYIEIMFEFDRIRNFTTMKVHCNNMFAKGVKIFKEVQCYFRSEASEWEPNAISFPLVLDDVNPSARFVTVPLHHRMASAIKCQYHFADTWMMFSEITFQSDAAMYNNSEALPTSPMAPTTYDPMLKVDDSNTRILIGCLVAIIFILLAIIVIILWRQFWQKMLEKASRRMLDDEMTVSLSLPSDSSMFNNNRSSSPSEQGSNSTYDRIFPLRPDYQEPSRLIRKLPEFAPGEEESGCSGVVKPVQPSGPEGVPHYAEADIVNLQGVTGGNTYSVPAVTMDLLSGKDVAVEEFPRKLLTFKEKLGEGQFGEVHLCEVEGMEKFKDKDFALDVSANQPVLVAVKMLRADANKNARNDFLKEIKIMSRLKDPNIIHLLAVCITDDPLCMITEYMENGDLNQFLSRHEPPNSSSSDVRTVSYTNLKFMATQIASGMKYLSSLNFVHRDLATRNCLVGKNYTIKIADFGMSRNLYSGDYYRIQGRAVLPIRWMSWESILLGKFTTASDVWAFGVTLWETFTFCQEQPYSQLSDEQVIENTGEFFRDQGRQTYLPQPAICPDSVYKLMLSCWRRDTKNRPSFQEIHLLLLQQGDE", "settings": "kinase DDR2; 1 µmol/L single concentration; read-out: %-inhibition at 1 µmol/L, DDR2"}, "[3]": {"target": "panel of 255 wild-type kinases (Homo sapiens, UniProt P31749)", "sequence (P31749 whole entry)": "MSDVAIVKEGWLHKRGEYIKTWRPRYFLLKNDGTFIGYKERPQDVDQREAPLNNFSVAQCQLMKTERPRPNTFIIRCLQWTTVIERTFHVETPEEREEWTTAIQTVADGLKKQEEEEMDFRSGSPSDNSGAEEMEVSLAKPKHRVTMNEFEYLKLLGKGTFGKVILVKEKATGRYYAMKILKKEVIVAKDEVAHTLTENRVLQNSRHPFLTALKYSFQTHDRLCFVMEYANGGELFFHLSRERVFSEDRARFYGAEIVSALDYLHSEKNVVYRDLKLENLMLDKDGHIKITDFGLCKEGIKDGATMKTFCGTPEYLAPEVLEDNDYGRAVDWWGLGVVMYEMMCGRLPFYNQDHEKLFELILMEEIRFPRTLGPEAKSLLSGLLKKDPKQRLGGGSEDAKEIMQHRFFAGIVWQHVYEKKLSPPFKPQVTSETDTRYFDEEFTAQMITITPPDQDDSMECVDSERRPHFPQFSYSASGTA", "settings": "AKT1 kinase assay; 1 µmol/L single concentration; read-out: %-inhibition AKT1"}, "[4]": {"target": "panel of 255 wild-type kinases (Homo sapiens, UniProt Q9H1R3)", "sequence (Q9H1R3 whole entry)": "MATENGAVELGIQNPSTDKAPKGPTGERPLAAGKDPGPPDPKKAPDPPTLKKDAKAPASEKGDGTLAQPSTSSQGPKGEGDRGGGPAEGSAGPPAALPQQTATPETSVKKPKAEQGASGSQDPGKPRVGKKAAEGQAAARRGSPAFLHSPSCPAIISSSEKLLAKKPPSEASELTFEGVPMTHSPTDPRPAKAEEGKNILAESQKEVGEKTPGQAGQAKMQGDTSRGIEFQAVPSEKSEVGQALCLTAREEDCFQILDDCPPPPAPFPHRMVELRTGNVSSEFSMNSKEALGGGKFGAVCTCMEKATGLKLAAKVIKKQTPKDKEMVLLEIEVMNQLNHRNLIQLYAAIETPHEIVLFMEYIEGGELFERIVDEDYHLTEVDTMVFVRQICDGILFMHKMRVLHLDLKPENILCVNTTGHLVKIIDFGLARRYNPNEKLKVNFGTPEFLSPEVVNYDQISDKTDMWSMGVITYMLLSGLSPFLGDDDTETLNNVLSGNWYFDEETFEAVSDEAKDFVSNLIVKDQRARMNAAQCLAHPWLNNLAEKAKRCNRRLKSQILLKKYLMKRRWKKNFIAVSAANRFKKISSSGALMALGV", "settings": "kinase skMLCK; 1 µmol/L single concentration; read-out: %-inhibition at 1 µmol/L, skMLCK"}, "[5]": {"target": "panel of 255 wild-type kinases (Homo sapiens, UniProt P00519)", "settings": "ABL kinase assay; 1 µmol/L single concentration; read-out: %-inhibition ABL"}, "[6]": {"target": "panel of 255 wild-type kinases (Homo sapiens, UniProt P42685)", "sequence (P42685 whole entry)": "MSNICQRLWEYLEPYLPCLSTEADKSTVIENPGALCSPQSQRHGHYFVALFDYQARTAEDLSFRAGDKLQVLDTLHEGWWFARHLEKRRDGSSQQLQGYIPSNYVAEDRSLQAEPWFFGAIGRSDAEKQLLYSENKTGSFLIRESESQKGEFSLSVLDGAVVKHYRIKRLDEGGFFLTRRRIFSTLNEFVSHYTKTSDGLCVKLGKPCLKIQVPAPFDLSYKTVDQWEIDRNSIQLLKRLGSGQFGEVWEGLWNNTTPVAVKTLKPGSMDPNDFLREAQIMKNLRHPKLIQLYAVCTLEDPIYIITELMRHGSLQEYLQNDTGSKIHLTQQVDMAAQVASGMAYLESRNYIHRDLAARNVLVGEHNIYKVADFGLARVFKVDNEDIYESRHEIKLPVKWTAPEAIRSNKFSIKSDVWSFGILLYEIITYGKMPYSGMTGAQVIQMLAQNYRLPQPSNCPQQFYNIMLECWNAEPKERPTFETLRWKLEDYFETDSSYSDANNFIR", "settings": "kinase FRK; 1 µmol/L single concentration; read-out: %-inhibition at 1 µmol/L, FRK"}, "[7]": {"target": "panel of 255 wild-type kinases (Homo sapiens, UniProt P48729)", "sequence (P48729 whole entry)": "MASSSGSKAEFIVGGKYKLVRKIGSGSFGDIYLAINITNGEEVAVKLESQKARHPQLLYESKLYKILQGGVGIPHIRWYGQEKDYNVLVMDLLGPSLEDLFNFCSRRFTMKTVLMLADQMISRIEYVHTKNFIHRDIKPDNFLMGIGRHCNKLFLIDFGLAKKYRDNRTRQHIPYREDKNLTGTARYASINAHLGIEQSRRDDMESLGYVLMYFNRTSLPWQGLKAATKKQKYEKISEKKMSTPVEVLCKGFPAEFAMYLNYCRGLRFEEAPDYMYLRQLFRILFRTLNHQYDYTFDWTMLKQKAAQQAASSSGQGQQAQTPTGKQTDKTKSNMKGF", "settings": "kinase CK1α; 1 µmol/L single concentration; read-out: %-inhibition at 1 µmol/L, CK1α"}, "[8]": {"target": "panel of 255 wild-type kinases (Homo sapiens, UniProt Q9UKE5)", "sequence (Q9UKE5 whole entry)": "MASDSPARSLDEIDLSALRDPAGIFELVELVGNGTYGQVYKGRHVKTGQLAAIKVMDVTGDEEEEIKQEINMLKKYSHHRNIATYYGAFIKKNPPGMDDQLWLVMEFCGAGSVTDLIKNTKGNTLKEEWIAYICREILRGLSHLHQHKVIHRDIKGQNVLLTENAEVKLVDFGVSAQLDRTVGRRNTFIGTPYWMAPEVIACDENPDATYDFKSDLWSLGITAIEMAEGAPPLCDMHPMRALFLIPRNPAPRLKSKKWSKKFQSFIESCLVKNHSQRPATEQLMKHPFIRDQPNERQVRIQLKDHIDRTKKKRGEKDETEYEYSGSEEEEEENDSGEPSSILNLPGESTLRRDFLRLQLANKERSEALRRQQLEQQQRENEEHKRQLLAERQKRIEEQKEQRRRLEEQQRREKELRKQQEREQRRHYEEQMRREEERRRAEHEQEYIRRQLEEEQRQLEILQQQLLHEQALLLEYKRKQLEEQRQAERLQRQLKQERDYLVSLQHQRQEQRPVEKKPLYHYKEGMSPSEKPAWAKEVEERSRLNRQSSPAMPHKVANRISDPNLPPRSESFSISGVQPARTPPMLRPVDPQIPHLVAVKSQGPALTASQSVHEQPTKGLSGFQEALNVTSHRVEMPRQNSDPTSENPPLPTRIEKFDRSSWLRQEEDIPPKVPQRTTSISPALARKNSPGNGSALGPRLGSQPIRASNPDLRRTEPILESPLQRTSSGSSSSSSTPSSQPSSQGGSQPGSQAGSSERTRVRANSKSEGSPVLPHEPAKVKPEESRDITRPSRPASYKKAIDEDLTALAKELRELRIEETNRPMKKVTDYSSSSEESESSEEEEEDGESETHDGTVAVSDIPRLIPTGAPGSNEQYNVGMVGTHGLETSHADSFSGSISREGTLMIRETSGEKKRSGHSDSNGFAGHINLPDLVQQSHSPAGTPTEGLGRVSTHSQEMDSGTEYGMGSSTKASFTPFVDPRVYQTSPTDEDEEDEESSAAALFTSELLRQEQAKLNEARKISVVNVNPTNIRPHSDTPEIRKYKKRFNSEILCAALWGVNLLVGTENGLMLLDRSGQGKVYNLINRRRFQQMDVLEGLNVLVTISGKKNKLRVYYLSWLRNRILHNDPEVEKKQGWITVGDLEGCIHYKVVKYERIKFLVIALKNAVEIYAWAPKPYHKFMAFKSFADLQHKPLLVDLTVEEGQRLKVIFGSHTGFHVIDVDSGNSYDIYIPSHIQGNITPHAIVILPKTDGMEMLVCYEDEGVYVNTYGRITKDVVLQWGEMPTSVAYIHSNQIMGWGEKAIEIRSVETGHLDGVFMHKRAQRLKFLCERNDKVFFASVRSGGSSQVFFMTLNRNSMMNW", "settings": "kinase TNIK; 1 µmol/L single concentration; read-out: %-inhibition at 1 µmol/L, TNIK"}, "[9]": {"target": "panel of 255 wild-type kinases (Homo sapiens, UniProt Q13554)", "sequence (Q13554 whole entry)": "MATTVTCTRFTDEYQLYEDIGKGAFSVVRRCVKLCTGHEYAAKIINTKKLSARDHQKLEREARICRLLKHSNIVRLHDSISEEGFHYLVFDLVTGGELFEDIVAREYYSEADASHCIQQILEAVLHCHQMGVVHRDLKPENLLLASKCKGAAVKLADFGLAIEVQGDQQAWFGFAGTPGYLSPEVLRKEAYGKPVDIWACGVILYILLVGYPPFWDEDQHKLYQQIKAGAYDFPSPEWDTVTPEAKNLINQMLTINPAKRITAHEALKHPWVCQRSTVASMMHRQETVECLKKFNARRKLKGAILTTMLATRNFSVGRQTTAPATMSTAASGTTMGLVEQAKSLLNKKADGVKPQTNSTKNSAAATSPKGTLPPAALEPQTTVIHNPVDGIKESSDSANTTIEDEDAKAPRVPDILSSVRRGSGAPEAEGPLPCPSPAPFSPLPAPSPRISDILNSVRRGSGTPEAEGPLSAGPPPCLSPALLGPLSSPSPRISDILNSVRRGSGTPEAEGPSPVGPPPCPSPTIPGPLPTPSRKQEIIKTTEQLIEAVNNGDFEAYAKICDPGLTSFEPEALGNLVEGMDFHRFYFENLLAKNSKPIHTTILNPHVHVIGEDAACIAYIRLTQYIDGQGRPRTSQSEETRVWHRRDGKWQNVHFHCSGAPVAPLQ", "settings": "CaMK2β kinase assay; 1 µmol/L single concentration; read-out: %-inhibition CaMK2β"}, "[10]": {"target": "panel of 255 wild-type kinases (Homo sapiens, UniProt Q9P0L2)", "sequence (Q9P0L2 whole entry)": "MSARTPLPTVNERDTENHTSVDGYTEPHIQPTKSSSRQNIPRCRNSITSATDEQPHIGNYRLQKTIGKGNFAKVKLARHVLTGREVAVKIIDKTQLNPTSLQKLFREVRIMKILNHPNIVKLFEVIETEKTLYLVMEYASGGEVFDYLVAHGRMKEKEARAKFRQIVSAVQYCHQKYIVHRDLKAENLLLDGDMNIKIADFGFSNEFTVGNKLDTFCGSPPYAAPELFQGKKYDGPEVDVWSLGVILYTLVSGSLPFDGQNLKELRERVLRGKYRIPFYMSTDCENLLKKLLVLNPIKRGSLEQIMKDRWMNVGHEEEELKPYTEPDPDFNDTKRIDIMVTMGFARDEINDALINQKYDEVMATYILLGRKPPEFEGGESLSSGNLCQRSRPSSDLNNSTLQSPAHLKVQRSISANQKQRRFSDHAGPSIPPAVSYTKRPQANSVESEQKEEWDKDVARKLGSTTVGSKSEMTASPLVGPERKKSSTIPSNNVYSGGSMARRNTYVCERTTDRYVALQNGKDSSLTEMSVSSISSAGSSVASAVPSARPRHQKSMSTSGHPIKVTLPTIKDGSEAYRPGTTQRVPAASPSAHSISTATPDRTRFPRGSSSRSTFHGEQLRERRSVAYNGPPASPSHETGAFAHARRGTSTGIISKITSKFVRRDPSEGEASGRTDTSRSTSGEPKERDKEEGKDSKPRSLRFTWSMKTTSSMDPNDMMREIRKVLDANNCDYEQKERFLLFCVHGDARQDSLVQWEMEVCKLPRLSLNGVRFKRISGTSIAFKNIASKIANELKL", "settings": "MARK1; 1 µmol/L single concentration; read-out: %-inhibition, MARK1"}, "[11]": {"target": "panel of 255 wild-type kinases (Homo sapiens, UniProt Q13627)", "settings": "kinase DYRK1A; 1 µmol/L single concentration; read-out: %-inhibition at 1 µmol/L, DYRK1A"}},
  "data": [
    {"compound": "CO[C@]1(C(=O)N[C@@H](C)c2ccc(-n3cc(F)cn3)nc2)CC[C@H](c2nc(C)cc(Nc3cc(C)[nH]n3)n2)CC1", "note": "[pralsetinib]", "values": [
      {"measurement": "inhibition at 1 µM", "setting": "[1]", "value": -0.786, "unit": "%"},
      {"measurement": "inhibition at 1 µM", "setting": "[2]", "value": 102, "unit": "%"},
      {"measurement": "inhibition at 1 µM", "setting": "[3]", "value": -12, "unit": "%"},
      {"measurement": "inhibition at 1 µM", "setting": "[4]", "value": 5, "unit": "%"},
      {"measurement": "inhibition at 1 µM", "setting": "[5]", "value": 37, "unit": "%"},
      {"measurement": "inhibition at 1 µM", "setting": "[6]", "value": 82, "unit": "%"},
      {"measurement": "inhibition at 1 µM", "setting": "[7]", "value": -2.22, "unit": "%"},
      {"measurement": "inhibition at 1 µM", "setting": "[8]", "value": 6.58, "unit": "%"},
      {"measurement": "inhibition at 1 µM", "setting": "[9]", "value": -0.895, "unit": "%"},
      {"measurement": "inhibition at 1 µM", "setting": "[10]", "value": -13, "unit": "%"},
      {"measurement": "inhibition at 1 µM", "setting": "[11]", "value": -3, "unit": "%"}
    ]},
    {"compound": "CCn1c(=O)c(-c2cc(NC(=O)Nc3ccccc3)c(F)cc2Br)cc2cnc(NC)cc21", "note": "[ripretinib]", "values": [
      {"measurement": "inhibition at 1 µM", "setting": "[1]", "value": -3.46, "unit": "%"},
      {"measurement": "inhibition at 1 µM", "setting": "[2]", "value": 98, "unit": "%"},
      {"measurement": "inhibition at 1 µM", "setting": "[3]", "value": -6, "unit": "%"},
      {"measurement": "inhibition at 1 µM", "setting": "[4]", "value": 69, "unit": "%"},
      {"measurement": "inhibition at 1 µM", "setting": "[5]", "value": 18, "unit": "%"},
      {"measurement": "inhibition at 1 µM", "setting": "[6]", "value": 87, "unit": "%"},
      {"measurement": "inhibition at 1 µM", "setting": "[7]", "value": 11, "unit": "%"},
      {"measurement": "inhibition at 1 µM", "setting": "[8]", "value": 28, "unit": "%"},
      {"measurement": "inhibition at 1 µM", "setting": "[9]", "value": 1.19, "unit": "%"},
      {"measurement": "inhibition at 1 µM", "setting": "[10]", "value": -0.571, "unit": "%"},
      {"measurement": "inhibition at 1 µM", "setting": "[11]", "value": 1.4, "unit": "%"}
    ]},
    {"compound": "COc1ccc(CN2C3CC2CN(c2ccc(-c4cc(OCC(C)(C)O)cn5ncc(C#N)c45)cn2)C3)cn1", "note": "[selpercatinib]", "values": [
      {"measurement": "inhibition at 1 µM", "setting": "[1]", "value": 1.9, "unit": "%"},
      {"measurement": "inhibition at 1 µM", "setting": "[2]", "value": 73, "unit": "%"},
      {"measurement": "inhibition at 1 µM", "setting": "[3]", "value": -10, "unit": "%"},
      {"measurement": "inhibition at 1 µM", "setting": "[4]", "value": -0.264, "unit": "%"},
      {"measurement": "inhibition at 1 µM", "setting": "[5]", "value": 16, "unit": "%"},
      {"measurement": "inhibition at 1 µM", "setting": "[6]", "value": 13, "unit": "%"},
      {"measurement": "inhibition at 1 µM", "setting": "[7]", "value": 25, "unit": "%"},
      {"measurement": "inhibition at 1 µM", "setting": "[8]", "value": 6, "unit": "%"},
      {"measurement": "inhibition at 1 µM", "setting": "[9]", "value": 1.27, "unit": "%"},
      {"measurement": "inhibition at 1 µM", "setting": "[10]", "value": 22, "unit": "%"},
      {"measurement": "inhibition at 1 µM", "setting": "[11]", "value": 6, "unit": "%"}
    ]},
    {"compound": "Cn1cnc2c(F)c(Nc3ccc(Br)cc3Cl)c(C(=O)NOCCO)cc21", "note": "[selumetinib]", "values": [
      {"measurement": "inhibition at 1 µM", "setting": "[1]", "value": -1.34, "unit": "%"},
      {"measurement": "inhibition at 1 µM", "setting": "[2]", "value": -0.119, "unit": "%"},
      {"measurement": "inhibition at 1 µM", "setting": "[3]", "value": -11, "unit": "%"},
      {"measurement": "inhibition at 1 µM", "setting": "[4]", "value": 0.627, "unit": "%"},
      {"measurement": "inhibition at 1 µM", "setting": "[5]", "value": -6.58, "unit": "%"},
      {"measurement": "inhibition at 1 µM", "setting": "[6]", "value": -3, "unit": "%"},
      {"measurement": "inhibition at 1 µM", "setting": "[7]", "value": -3.42, "unit": "%"},
      {"measurement": "inhibition at 1 µM", "setting": "[8]", "value": 2.3, "unit": "%"},
      {"measurement": "inhibition at 1 µM", "setting": "[9]", "value": -0.923, "unit": "%"},
      {"measurement": "inhibition at 1 µM", "setting": "[10]", "value": -16, "unit": "%"},
      {"measurement": "inhibition at 1 µM", "setting": "[11]", "value": -3.48, "unit": "%"}
    ]},
    {"compound": "Cc1cc(Nc2ncnc3ccc(NC4=NC(C)(C)CO4)cc23)ccc1Oc1ccn2ncnc2c1", "note": "[tucatinib]", "values": [
      {"measurement": "inhibition at 1 µM", "setting": "[1]", "value": 0.835, "unit": "%"},
      {"measurement": "inhibition at 1 µM", "setting": "[2]", "value": 10, "unit": "%"},
      {"measurement": "inhibition at 1 µM", "setting": "[3]", "value": -9, "unit": "%"},
      {"measurement": "inhibition at 1 µM", "setting": "[4]", "value": -1.5, "unit": "%"},
      {"measurement": "inhibition at 1 µM", "setting": "[5]", "value": -3, "unit": "%"},
      {"measurement": "inhibition at 1 µM", "setting": "[6]", "value": -2.17, "unit": "%"},
      {"measurement": "inhibition at 1 µM", "setting": "[7]", "value": 0.588, "unit": "%"},
      {"measurement": "inhibition at 1 µM", "setting": "[8]", "value": 4, "unit": "%"},
      {"measurement": "inhibition at 1 µM", "setting": "[9]", "value": 1.33, "unit": "%"},
      {"measurement": "inhibition at 1 µM", "setting": "[10]", "value": -7, "unit": "%"},
      {"measurement": "inhibition at 1 µM", "setting": "[11]", "value": -3.25, "unit": "%"}
    ]},
    {"compound": "C=CC(=O)N1CCC([C@@H]2CCNc3c(C(N)=O)c(-c4ccc(Oc5ccccc5)cc4)nn32)CC1", "note": "[zanubrutinib]", "values": [
      {"measurement": "inhibition at 1 µM", "setting": "[1]", "value": 1, "unit": "%"},
      {"measurement": "inhibition at 1 µM", "setting": "[2]", "value": -3.23, "unit": "%"},
      {"measurement": "inhibition at 1 µM", "setting": "[3]", "value": -13, "unit": "%"},
      {"measurement": "inhibition at 1 µM", "setting": "[4]", "value": -2.7, "unit": "%"},
      {"measurement": "inhibition at 1 µM", "setting": "[5]", "value": -4.52, "unit": "%"},
      {"measurement": "inhibition at 1 µM", "setting": "[6]", "value": 82, "unit": "%"},
      {"measurement": "inhibition at 1 µM", "setting": "[7]", "value": -0.607, "unit": "%"},
      {"measurement": "inhibition at 1 µM", "setting": "[8]", "value": 6.44, "unit": "%"},
      {"measurement": "inhibition at 1 µM", "setting": "[9]", "value": 2.44, "unit": "%"},
      {"measurement": "inhibition at 1 µM", "setting": "[10]", "value": -6, "unit": "%"},
      {"measurement": "inhibition at 1 µM", "setting": "[11]", "value": -4.37, "unit": "%"}
    ]}
  ]
}
